The numbers were not newly measured in patent US20130331402A1, “DOSING REGIMEN ASSOCIATED WITH LONG-ACTING INJECTABLE PALIPERIDONE ESTERS” (Janssen Pharmaceutica NV, priority 2009, published 2013), which cites them from elsewhere.

Structures are written as SMILES.

For the first series the following is noted: oral atypical antipsychotics, Table 2.
On to `CCN1CCCC1CNC(=O)c1cc(S(=O)(=O)CC)c(N)cc1OC` (stereo not drawn) [Amisulpride], for which the “Terminal Half-life” value was 12 h.

Consider `O=C1CCc2ccc(OCCCCN3CCN(c4cccc(Cl)c4Cl)CC3)cc2N1` [Aripiprazole], for which the “Terminal Half-life” value is 47 to 68 h.

Regarding `CN1CCN(C2=Nc3cc(Cl)ccc3Nc3ccccc32)CC1` [Clozapine], the “Terminal Half-life” value was 9 to 17 h.

`Cc1nc2n(c(=O)c1CCN1CCC(c3noc4cc(F)ccc34)CC1)CCCC2O` (stereo not drawn) [Paliperidone (9-hydroxy-risperidone), Paliperidone]: the “Terminal Half-life” value is 25 h.

With `OCCOCCN1CCN(C2=Nc3ccccc3Sc3ccccc32)CC1` [Quetiapine], the “Terminal Half-life” value is 6 h.

Regarding `O=C1NCCN1CCN1CCC(c2cn(-c3ccc(F)cc3)c3ccc(Cl)cc23)CC1` [Sertindole], the “Terminal Half-life” value is 70 h.

With `O=C1Cc2cc(CCN3CCN(c4nsc5ccccc45)CC3)c(Cl)cc2N1` [Ziprasidone], the “Terminal Half-life” value was 8 to 10 h.

The series is the same for the next values; noted with them: oral typical antipsychotics, Table 1.
In the case of `CN(C)CCCN1c2ccccc2Sc2ccc(Cl)cc21` [Chlorpromazine], the “Terminal Half-life” value is 8 to 35 h.

Regarding `OCCN1CCN(CC/C=C2/c3ccccc3Sc3ccc(C(F)(F)F)cc32)CC1` [Flupenthixol], the “Terminal Half-life” value is 22 to 36 h.

As to `OCCN1CCN(CCCN2c3ccccc3Sc3ccc(C(F)(F)F)cc32)CC1` [Fluphenazine], the “Terminal Half-life” value is 14 to 24 h.

For `O=C(CCCN1CCC(O)(c2ccc(Cl)cc2)CC1)c1ccc(F)cc1` [Haloperidol], the “Terminal Half-life” value is 12 to 36 h.

`CN1CCN(C2=Nc3ccccc3Oc3ccc(Cl)cc32)CC1` [Loxapine]: the “Terminal Half-life” value is 4 h.

In the case of `CCc1c(C)[nH]c2c1C(=O)C(CN1CCOCC1)CC2` (stereo not drawn) [Molindone], the “Terminal Half-life” value was 1.5 h.

In the case of `OCCN1CCN(CCCN2c3ccccc3Sc3ccc(Cl)cc32)CC1` [Perphenazine], the “Terminal Half-life” value was 8 to 21 h.

For the compound `O=c1[nH]c2ccccc2n1C1CCN(CCCC(c2ccc(F)cc2)c2ccc(F)cc2)CC1` [Pimozide], the “Terminal Half-life” value is 48 to 72 h.

As for `CN1CCN(CCCN2c3ccccc3Sc3ccc(Cl)cc32)CC1` [Prochlorperazine], the “Terminal Half-life” value was 4 to 8 h.

On to `CSc1ccc2c(c1)N(CCC1CCCCN1C)c1ccccc1S2` (stereo not drawn) [Thioridazine], for which the “Terminal Half-life” value was 9 to 30 h.

Take `CN1CCN(CC/C=C2/c3ccccc3Sc3ccc(S(=O)(=O)N(C)C)cc32)CC1` [Thiothixene]: the “Terminal Half-life” value was 34 h.

`CN1CCN(CCCN2c3ccccc3Sc3ccc(C(F)(F)F)cc32)CC1` [Trifluoperazine]: the “Terminal Half-life” value was 10 to 20 h.

The conditions of a further series: depot intramuscular antipsychotics.
For the compound `CCCCCCCCCC(=O)OCCN1CCN(CC/C=C2\c3ccccc3Sc3ccc(Cl)cc32)CC1` [Clopenthixol decanoate], the “t1/2 (apparent terminal half-life after multiple dosing)” value was 456 h.

Turning to `CCCCCCCCCC(=O)OCCN1CCN(CC/C=C2\c3ccccc3Sc3ccc(C(F)(F)F)cc32)CC1` [Flupenthixol decanoate], the “t1/2 (apparent terminal half-life after multiple dosing)” value is 408 h.

For `CCCCCCCCCC(=O)OCCN1CCN(CCCN2c3ccccc3Sc3ccc(C(F)(F)F)cc32)CC1` [Fluphenazine decanoate], the “t1/2 (apparent terminal half-life after multiple dosing)” value is 336 h.

Consider `CCCCCCC(=O)OCCN1CCN(CCCN2c3ccccc3Sc3ccc(C(F)(F)F)cc32)CC1` [Fluphenazine enanthate], for which the “t1/2 (apparent terminal half-life after multiple dosing)” value was 96 h.

As for `O=C1NCN(c2ccccc2)C12CCN(CCCC(c1ccc(F)cc1)c1ccc(F)cc1)CC2` [Fluspirilene], the “t1/2 (apparent terminal half-life after multiple dosing)” value is 170 h.

As for `CCCCCCCCCC(=O)OC1(c2ccc(Cl)cc2)CCN(CCCC(=O)c2ccc(F)cc2)CC1` [Haloperidol decanoate], the “t1/2 (apparent terminal half-life after multiple dosing)” value is 504 h.

Regarding `Cc1cc2c(s1)Nc1ccccc1N=C2N1CCN(C)CC1.O.O=C(O)c1cc2ccccc2c(Cc2c(O)c(C(=O)O)cc3ccccc23)c1O` [Olanzapine pamoate], the “t1/2 (apparent terminal half-life after multiple dosing)” value is 720 h.

Turning to `CCCCCCC(=O)OCCN1CCN(CCCN2c3ccccc3Sc3ccc(Cl)cc32)CC1` [Perphenazine enanthate], the “t1/2 (apparent terminal half-life after multiple dosing)” value was 96 to 140 h.

For the compound `CCCCCCCCCCCCCCCC(=O)OCCC1CCN(CCCN2c3ccccc3Sc3ccc(S(=O)(=O)N(C)C)cc32)CC1` [Pipothiazine palmitate], the “t1/2 (apparent terminal half-life after multiple dosing)” value was 360 to 384 h.

In the case of `CCCCCCCCCC(=O)OCCN1CCN(CC/C=C2/c3ccccc3Sc3ccc(Cl)cc32)CC1` [Zuclopenthixol decanoate], the “t1/2 (apparent terminal half-life after multiple dosing)” value was 456 h.

For a further series the following is noted: background statement.
With `CCCCCCCCCCCCCCCC(=O)OC1CCCn2c1nc(C)c(CCN1CCC(c3noc4cc(F)ccc34)CC1)c2=O` (racemic) [paliperidone palmitate, (±)-3-[2-[4-(6-fluoro-1,2-benzisoxazol-3-yl)-1-piperidinyl]ethyl]-6,7,8,9-tetrahydro-2-methyl-4-oxo-4H-pyrido[1,2-c]pyrimidin-9-yl hexadecanoate], the water solubility result is recorded as “extreme low water solubility”.
